Data taken from patent publication US11274083B2, “Substituted thiophenyl uracils, salts thereof and the use thereof as herbicidal agents” (Syngenta Crop Protection AG, priority 2017, dated 2022).

Assays:
Format in all cases: in vivo
[1] = test system: Matricaria inodora; assay: Herbicidal action pre-emergence, greenhouse pot test; details: application rate 320 g/ha
[2] = test system: Echinochloa crus-galli; assay: as above; details: application rate 320 g/ha
Outline: (§1)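 Efficacy (%) was estimated visually after about 3 weeks in the greenhouse by comparison with untreated pots. Before that, seeded pots received a surface spray of formulated compound at 320 g/ha or less.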

[3] = test system: Pharbitis purpurea; assay: as above; details: application rate 320 g/ha
Outline: as §1

[4] = test system: Alopecurus myosuroides; assay: as above
Outline: as §1

[5] = test system: Cyperus esculentus; assay: as above; details: application rate 320 g/ha
Outline: as §1

[6] = test system: Abutilon theophrasti; assay: as above; details: application rate 320 g/ha
Outline: as §1

[7] = test system: Stellaria media; assay: as above; details: application rate 320 g/ha
Outline: as §1

[8] = test system: Lolium multiflorum; assay: as above; details: application rate 80 g/ha, scored visually after about 3 weeks vs untreated controls
Outline: as §1

[9] = test system: Amaranthus retroflexus; assay: as above
Outline: as §1

[10] = test system: Veronica persica; assay: as above; details: application rate 320 g/ha
Outline: as §1

[11] = test system: Setaria viridis; assay: as above; details: application rate 320 g/ha
Outline: as §1

[12] = test system: Polygonum convolvulus; assay: as above; details: application rate 320 g/ha
Outline: as §1

[13] = test system: Viola tricolor; assay: as above; details: application rate 320 g/ha
Outline: as §1

[14] = test system: Oryza sativa; assay: Crop compatibility post-emergence, greenhouse pot test; details: application rate 20 g/ha
Outline: (§2)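 Sandy loam pots, greenhouse; one-leaf stage, 2–3 wk post-sowing; WP or EC, aq. spray on green parts, 0.5% additive, 600 L/ha; ~3 wk; visual score % vs untreated (0 = control-like, 100 = dead).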

[15] = test system: Triticum aestivum; assay: as above
Outline: as §2

[16] = test system: Echinochloa crus-galli; assay: Herbicidal action post-emergence, greenhouse pot test; details: application rate 80 g/ha
Outline: (§3)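 Plants grown from seed in sandy loam are treated at the one-leaf stage with aqueous suspensions or emulsions, 600 L/ha water rate, 0.5% additive, at 80 g/ha or lower. They then stand about 3 weeks in the greenhouse before visual scoring against untreated controls.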

[17] = test system: Pharbitis purpurea; assay: as above; details: application rate 80 g/ha
Outline: as §3

[18] = test system: Alopecurus myosuroides; assay: as above; details: application rate 80 g/ha, scored visually after about 3 weeks vs untreated controls
Outline: as §3

[19] = test system: Abutilon theophrasti; assay: as above; details: application rate 80 g/ha
Outline: as §3

[20] = test system: Stellaria media; assay: as above; details: application rate 80 g/ha
Outline: as §3

[21] = test system: Lolium multiflorum; assay: as above; details: application rate 80 g/ha
Outline: as §3

[22] = test system: Amaranthus retroflexus; assay: as above; details: application rate 80 g/ha
Outline: as §3

[23] = test system: Veronica persica; assay: as above; details: application rate 80 g/ha
Outline: as §3

[24] = test system: Avena fatua; assay: as above; details: application rate 80 g/ha
Outline: as §3

[25] = test system: Setaria viridis; assay: as above; details: application rate 80 g/ha
Outline: as §3

[26] = test system: Polygonum convolvulus; assay: as above; details: application rate 80 g/ha
Outline: as §3

[27] = test system: Viola tricolor; assay: as above; details: application rate 80 g/ha
Outline: as §3

[28] = test system: Matricaria inodora; assay: as above; details: application rate 80 g/ha
Outline: as §3

[29] = test system: Digitaria sanguinalis; assay: Herbicidal action pre-emergence, greenhouse pot test; details: application rate 320 g/ha
Source text: Seeds of mono- and dicotyledonous weeds and crop plants were laid out in plastic or organic plant pots and covered with soil. The compounds of the invention formulated in the form of wettable powders (WP) or as emulsion concentrates (EC) were then applied to the surface of the covering soil as an aqueous suspension or emulsion with addition of 0.5% additive at a water application rate equivalent to 600 L/ha. After the treatment, the pots were placed in a greenhouse and kept under good growth conditions for the test plants. After about 3 weeks, the efficacy of the preparations was scored visually as a percentage by comparison with untreated controls. For example, 100% efficacy=plants have died. 0% efficacy=like control plants.

[30] = test system: Hordeum murinum; assay: as above; details: application rate 320 g/ha
Outline: as §1

[31] = test system: Lolium rigidum; assay: as above; details: application rate 320 g/ha
Outline: as §1

[32] = test system: Digitaria sanguinalis; assay: Herbicidal action post-emergence, greenhouse pot test; details: application rate 80 g/ha
[33] = test system: Zea mays; assay: Crop compatibility post-emergence, greenhouse pot test; details: application rate 20 g/ha
Outline: as §2

[34] = test system: Lolium rigidum; assay: Herbicidal action post-emergence, greenhouse pot test; details: application rate 80 g/ha
Outline: as §3

Row | SMILES | Matricaria inodora (Efficacy in %) [1] | Echinochloa crus-galli (Efficacy in %) [2] | Pharbitis purpurea (Efficacy in %) [3] | Abutilon theophrasti (Efficacy in %) [6] | Stellaria media (Efficacy in %) [7] | Veronica persica (Efficacy in %) [10] | Setaria viridis (Efficacy in %) [11] | Polygonum convolvulus (Efficacy in %) [12] | Viola tricolor (Efficacy in %) [13] | Oryza sativa (Efficacy in %) [14] | Echinochloa crus-galli (Efficacy in %) [16] | Pharbitis purpurea (Efficacy in %) [17] | Alopecurus myosuroides (Efficacy in %) [18] | Abutilon theophrasti (Efficacy in %) [19] | Stellaria media (Efficacy in %) [20] | Amaranthus retroflexus (Efficacy in %) [22] | Veronica persica (Efficacy in %) [23] | Avena fatua (Efficacy in %) [24] | Setaria viridis (Efficacy in %) [25] | Polygonum convolvulus (Efficacy in %) [26] | other results
1 | CCOC(=O)CCOC(=O)C(C)Sc1cc(-n2c(=O)cc(C(F)(F)F)n(C)c2=O)c(F)cc1Cl (centres unmarked) [I.1-3] | 100% | 100% | 100% | 100% | 100% | 100% | 100% | 100% | 100% | 20% | 100% | 100% | 100% | 100% | 100% | 100% | 100% | 80% | 100% | 100% | Alopecurus myosuroides (Efficacy in %) ([4]; application rate 80 g/ha): 90%; Cyperus esculentus (Efficacy in %) [5]: 100%; Lolium multiflorum (Efficacy in %) [8]: 100%; Amaranthus retroflexus (Efficacy in %) ([9]; application rate 80 g/ha): 100%; Triticum aestivum (Efficacy in %) ([15]; application rate 20 g/ha): 10%; Lolium multiflorum (Efficacy in %) [21]: 100%; Viola tricolor (Efficacy in %) [27]: 100%; Matricaria inodora (Efficacy in %) [28]: 100%
2 | COC(=O)C(C)(C)COC(=O)C(C)Sc1cc(-n2c(=O)cc(C(F)(F)F)n(C)c2=O)c(F)cc1Cl (centres unmarked) [I.1-32] | 100% | 100% | 100% | 100% | 100% | 100% | 100% | 100% | 100% | 20% | 100% | 100% | 80% | 100% | 100% | 100% | 100% | 80% | 100% | 100% | Digitaria sanguinalis (Efficacy in %) [29]: 100%; Alopecurus myosuroides (Efficacy in %) ([4]; application rate 320 g/ha): 90%; Amaranthus retroflexus (Efficacy in %) ([9]; application rate 320 g/ha): 100%; Hordeum murinum (Efficacy in %) [30]: 90%; Lolium rigidum (Efficacy in %) [31]: 90%; Digitaria sanguinalis (Efficacy in %) [32]: 100%; Zea mays (Efficacy in %) [33]: 20%; Triticum aestivum (Efficacy in %) ([15]; application rate 5 g/ha): 20%; Lolium rigidum (Efficacy in %) [34]: 100%; Viola tricolor (Efficacy in %) [27]: 100%; Matricaria inodora (Efficacy in %) [28]: 100%
